Results taken from US20240392231A1, “BACTERIOLYSIS METHOD AND BACTERIA DETECTION METHOD” (ASAHI KASEI KABUSHIKI KAISHA, priority 2021, published 2024).

Key:
Escherichia coli (EC) = assay: Bacteriolysis and immunochromatographic detection, test line intensity by image processing; assay type: cell-based
Procedure: (§1) Escherichia coli (EC) was selected as the Gram-negative bacteria and Staphylococcus aureus (SA) as the Gram-positive bacteria, and each was dissolved in saline to prepare a solution with a concentration of 1e5 cfu/ml. Normal saline was also used as the bacteria-free solution.
(§2) 0.1M Tris-HCl (pH 7.4) buffer was mixed with 2.0 μg/ml of lysostaphin enzyme (the final concentration after mixing with the bacterial solution for evaluation (sample) was 1.0 μg/ml) and 0.2 mass % Tween20 for immunochromatographic development and used as a mother solution to prepare various reaction solutions with DDAO concentrations of from 0 to 0.5 mass % (the final concentrations after mixing with the bacterial solution for evaluation (sample) were 0 to 0.25 mass %) or benzalkonium chloride concentrations of 0 to 0.5 mass % (the final concentrations after mixing with the bacterial solution for evaluation (sample) were 0 to 0.25 mass %).
(§3) Bacterial lysis and detection performance by antigen-antibody reaction were evaluated by inserting the immunochromatographic test strip prepared in Example 1 into a 1:1 mixture of the bacterial solution for evaluation and the various reaction solutions described above. The evaluation was made by photographing the test line area with a camera and quantifying the degree of redness of the test line area due to gold colloids via image processing (from the RGB values, the G value was used as indicating the red absorption. This is indicated as “test line intensity” in the graphs below). A higher test line intensity indicates a higher degree of redness, and a test line intensity of 10 or higher is considered visually positive.

[1] = system: Staphylococcus aureus (SA); assay: as above; assay type: cell-based
Procedure: as §1, §2, §3
To see the effect of lysostaphin, Staphylococcus aureus (SA) was dissolved in saline to prepare a solution with a concentration of 1e6 cfu/ml. Normal saline was also used as the bacteria-free solution.
0.1M Tris-HCl (pH 7.4) buffer was mixed with DDAO at a concentration 0.15 mass % (the final concentration after mixing with the bacterial solution for evaluation (sample) was 0.075 mass %) or benzalkonium chloride at a concentration of 0.05 mass % (the final concentration after mixing with the bacterial solution for evaluation (sample) was 0.025 mass %) as well as 0.2 mass % of Tween20 for immunochromatographic development and used as a mother solution to prepare various reaction solutions with lysostaphin enzyme concentrations of 0 to 50 μg/ml (the final concentration after mixing with the bacterial solution for evaluation (sample) were 0 to 25 μg/ml).
Bacterial lysis and detection performance by antigen-antibody reaction (test line intensity) were evaluated by inserting the immunochromatographic test strip prepared in Example 1 into a 1:1 mixture of the bacterial solution for evaluation and the various reaction solutions described above.

Compound: benzalkonium chloride
- test line intensity EC (Escherichia coli (EC); final benzalkonium chloride exceeding 0.075 mass %, FIG. 3): decrease in test line intensity
- bacteriolysis efficiency and test line intensity EC (Escherichia coli (EC); final benzalkonium chloride up to 0.075 mass % vs none, lysostaphin 1.0 μg/ml, 1e5 cfu/ml, FIG. 3): higher bacteriolysis efficiency and test line intensity
- test line intensity SA ([1]; final benzalkonium chloride 0 to 0.065 mass %, lysostaphin 1.0 μg/ml, 1e5 cfu/ml, FIG. 3): increased
- test line intensity SA ([1]; final benzalkonium chloride exceeding 0.07 mass %, FIG. 3): decreased

Compound: CCCCCCCCCCCC[N+](C)(C)[O-] [DDAO, N,N-dimethyldodecylamine N-oxide]
- test line intensity EC (Escherichia coli (EC); higher final concentrations of DDAO vs absence of DDAO, lysostaphin 1.0 μg/ml, 1e5 cfu/ml, FIG. 2): higher test line intensities
- test line intensity SA ([1]; final DDAO 0 to 0.05 mass %, lysostaphin 1.0 μg/ml, 1e5 cfu/ml, FIG. 2): increased
- test line intensity SA ([1]; final DDAO above 0.1 mass %, lysostaphin 1.0 μg/ml, 1e5 cfu/ml, FIG. 2): decreased
- test line intensity SA ([1]; final DDAO between 0.05 and 0.1 mass %, lysostaphin 1.0 μg/ml, 1e5 cfu/ml, FIG. 2): remained almost constant

Compound: lysostaphin: bacteriolysis enzyme, protein hydrolysis enzyme
- test line intensity SA ([1]; lysostaphin final concentration exceeding 0.01 μg/ml, DDAO 0.075 mass %, 1e6 cfu/ml, FIG. 4): high test line intensity
- test line intensity SA ([1]; lysostaphin final concentration exceeding 0.01 μg/ml, benzalkonium chloride 0.025 mass %, 1e6 cfu/ml, FIG. 5): high test line intensity
